Assay results as given in US20250034151A1, “WEE1 INHIBITOR, PREPARATION THEREFOR, AND USE THEREOF” (JIANGSU TASLY DIYI PHARMACEUTICAL CO., LTD., priority 2022, published 2025).
Where two headings read alike, the source gives them in different places.

How the values were obtained:
[1] = Liver microsomes in vitro stability (mouse); type: in vitro ADME; settings: read-out: T1/2/min
Method: 1. Preparation of Working Solution:
Microsomes were taken out from the −80° C. refrigerator, rapidly melted in a 37° C. water bath and placed on ice until ready to use. The test article was diluted with DMSO to prepare a 10 mM stock solution, and then diluted with acetonitrile to a 0.5 mM secondary stock solution. […] NADPH was diluted with Buffer C to a working solution of 6 mM for the starter solution. An acetonitrile solution containing an internal standard was prepared as the precipitant, and Verapamil-HCl was chosen as the internal standard at a concentration of 4 ng/ml.
2. Experimental Procedure:
A round-bottom well plate was taken, noted as the reaction plate, and the prepared working solution for each compound was dispensed into the well plate according to the number of replicates and time points (0 h samples were also added to the reaction plate), 30 μL/well; the plate was incubated at 37° C. for 10 min. A separate plate with pointed bottom wells, noted as a precipitation plate, was added with 135 μL precipitant per well; 0 h samples were transferred to the plate after 10 min incubation and 15 μL of starter solution was added; the plate was placed on ice before centrifugation.
The diluted starter solution was added in sufficient quantity to the dispensing plate to facilitate the multichannel pipette aspiration operation.
The reaction was carried out on a warm incubation shaker and 15 μL of starter solution/sample is added to the plate using a multichannel pipette. The reaction was mixed with a slight shake to initiate the reaction, which was accurately timed and recorded using a timer. In general, samples with shorter reaction times are initiated late and vice versa early, allowing sufficient time for multiple plate manipulation to terminate the reaction. For example, as for the four experiments of 5, 15, 30, and 60 min, the 60 min experiment was started first, and the 5 min experiment was started later, so as to leave sufficient time for the 5 min group.
After the reaction time had elapsed, all the solution in the plate was aspirated using the multichannel pipette and added to the precipitation plate to terminate the reaction at that point in time. After all reactions had been terminated, the plates were shaken for ten minutes on a plate shaker at 600 rpm to precipitate the protein. The plate was centrifuged at 4° C. for 15 minutes at maximum rpm. 80 μL of supernatant was taken, 320 μL of pure water was added and mixed for LC-MS analysis.

Wee1 protein = target: T1, Wee1 protein (Homo sapiens, UniProt P30291); assay: Binding of compound to Wee1 protein and Tracer 178 by TR-FRET (Wee1 kinase inhibitory activity); settings: 15 nM WEE1, 50 nM Tracer 178, read-out: IC50 (inhibitory activity against Wee1 kinase)
T1 construct: purchased Thermo Fisher PR7373A
Method: First, solutions of the compounds in different concentration gradients were prepared. The compounds were dissolved in DMSO and the compounds were diluted 4 folds with a total of 10 dose points and 2 parallel replicates for each concentration.
The IC50 for inhibition of enzyme activity by the compounds was then calculated using GraphPad Prism 6 and fitted with a log (inhibitor) vs. response-Variable slope mode. The fitting equation was: Y=Bottom+(Top−Bottom)/(1+10^((Log IC50−X)*HillSlope)), wherein Y represents the percentage of residual enzyme activity known and X represents the known concentration of compound after the logarithm.

MIA PaCa2 cells = assay: Anti-proliferative effect on MIA PaCa2 cells by Cell Titer-Glo; type: cell-based; settings: Homo sapiens, MIA PaCa-2, 72 h, 3 days, read-out: MIA PaCa 2 (IC50, inhibition of proliferation in vitro)
Method: (§1) Test Example 2: Evaluation of Cell Proliferation Inhibitory Activity
2. Evaluation of the Anti-Proliferative Effect of Compounds on MIA PaCa2 Cells by the Cell Titer-Glo Method
(§2) Compound solutions of different concentration gradients were prepared. […] The cell growth group without compound was used as a positive control (maximum signal control) and the medium was used as a negative control (minimum signal control), while ensuring that the final level of DMSO in each reaction well was 0.2%. After removing the medium from the 384-well plate, 25 ul of the configured compound at different concentrations was transferred into the well plate and the compound and cells were incubated in the cell incubator at 37° C. with 5% CO2 for 3 days.
(§3) The 384-well plates were removed from the cell incubator and allowed to equilibrate for 1 h to room temperature. 25 ul of Cell Titer-Glo assay was added to each well, lysed on a shaker for 2 min and then read out (Luminescence) using a BMG PHERAStar after 10 min incubation. Calculate the inhibition rate from the luminescence signal: first calculate the average of the positive control (maximum signal control) and the negative control (minimum signal control).
(§4) was used to calculate the rate of inhibition of the cells by different concentrations of the compounds. The IC50 of the compound on cell activity inhibition was calculated by fitting a log(inhibitor) vs. response-Variable slope model to GraphPad Prism 6. The fitted equation was: Y=Bottom+(Top-Bottom)/(1+10^((Log IC50−X)*HillSlope)), wherein Y represents the rate of inhibition and X represents the concentration of the known compound after Log.
(§5) The results of the in vitro anti-cell proliferation assays of H1299 and MIA Paca-2 for the example compounds according to the method described above are shown in Table 2, wherein the IC50 of each compound was determined and classified according to the description as follows: […]

H1299 cells = assay: Anti-proliferative effect on H1299 cells by Cell Titer-Glo; type: cell-based; settings: 3 days
Method: as §1
1. Evaluation of the Anti-Proliferative Effect of Compounds on H1299 Cells by the Cell Titer-Glo Method
as §2
as §3, with “1h” for “1 h”
as §4, with “Y=Bottom+(Top−Bottom)/(1+10^((Log” for “Y=Bottom+(Top-Bottom)/(1+10^((Log”, “where” for “wherein”
as §5

[2] = Membrane permeability study (Caco-2); type: in vitro ADME; settings: human
Method: Caco-2 cells were purchased from the […] (Rockville, MD). The cell culture medium was modified Eagle's medium (MEM) containing 10% inactivated fetal bovine serum and 1% non-essential amino acids.
The cells were incubated for 21-28 days after inoculation for transport experiments and the apparent permeability (Papp) of Lucifer Yellow was used to characterize and verify the compactness of the cell monolayer. […] A 10 μM working solution of the compound to be tested was added to the apical side and basolateral side of Caco-2 and incubated at 37° C. for 90 min. After the incubation, dilute the samples on the apical side and basolateral side, and the concentrations of compounds on the apical and basolateral sides were detected by LC-MS/MS, and the concentrations of the compounds were quantified by standard curve.

[3] = Homo sapiens, NCI-H1299, 72 h, read-out: H1299 (IC50, inhibition of proliferation in vitro)

T1 sequence (P30291 whole entry): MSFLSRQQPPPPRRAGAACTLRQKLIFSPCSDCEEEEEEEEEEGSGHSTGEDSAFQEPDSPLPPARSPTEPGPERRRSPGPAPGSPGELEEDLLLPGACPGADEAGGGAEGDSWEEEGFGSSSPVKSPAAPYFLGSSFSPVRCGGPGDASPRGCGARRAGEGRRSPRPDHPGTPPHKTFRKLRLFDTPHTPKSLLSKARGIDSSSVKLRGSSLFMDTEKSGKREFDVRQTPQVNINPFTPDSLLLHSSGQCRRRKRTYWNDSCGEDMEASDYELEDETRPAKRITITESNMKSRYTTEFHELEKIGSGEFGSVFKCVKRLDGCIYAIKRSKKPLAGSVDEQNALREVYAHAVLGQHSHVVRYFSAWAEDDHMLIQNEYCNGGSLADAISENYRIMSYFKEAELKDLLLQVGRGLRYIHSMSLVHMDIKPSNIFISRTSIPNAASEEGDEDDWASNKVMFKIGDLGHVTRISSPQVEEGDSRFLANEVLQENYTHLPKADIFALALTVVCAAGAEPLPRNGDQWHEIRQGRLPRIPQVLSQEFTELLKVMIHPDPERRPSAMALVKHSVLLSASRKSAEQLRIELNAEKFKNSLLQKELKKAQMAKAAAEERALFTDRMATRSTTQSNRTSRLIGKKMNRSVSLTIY

| SMILES | half-life at 1 µM [1] [min] | IC50 (Wee1 protein) [µM] | IC50 (MIA PaCa2 cells) [µM] | IC50 (H1299 cells; [3]) [µM] | efflux ratio at 90 min, 10 µM ([2]; Caco-2, pH 7.4) | Papp A→B at 90 min, 10 µM ([2]; pH 7.4, Caco-2, 10 μM, 90 min, apical to basolateral) [nm/s] | Papp B→A at 90 min, 10 µM ([2]; pH 7.4, Caco-2, 10 μM, 90 min, basolateral to apical) [nm/s] | IC50 (H1299 cells; listed as Compound61, read-out: H1299 (IC50, inhibition of proliferation in vitro)) [µM] |
| --- | --- | --- | --- | --- | --- | --- | --- | --- |
| C=CCn1c(=O)c2cnc(Nc3ccc4c(c3)C(=O)N(C3CCN(C)CC3)C4)nc2n1-c1cccc(N=S(C)(C)=O)n1 [Compound 24] | > 120 | 0.01 to 0.1 | 0.1 to 1 | 5 to 10 | – | – | – | – |
| C=CCn1c(=O)c2cnc(Nc3ccc(N4C[C@H]5C[C@@H](C4)N5C)cc3)nc2n1-c1cccc(N=S(C)(C)=O)n1 [Compound 39] | > 120 | < 0.005 | ≤ 0.1 | 0.1 to 1 | – | – | – | – |
| C=CCn1c(=O)c2cnc(Nc3ccc4c(c3)CN(C3CCN(C)CC3)C4=O)nc2n1-c1cccc(N=S(C)(C)=O)n1 [Compound 15] | > 120 | 0.005 to 0.01 | 2 to 5 | > 10 | – | – | – | – |
| C=CCn1c(=O)c2cnc(Nc3ccc(N4C5CCC4CN(C)C5)cc3)nc2n1-c1cccc(C(C)(C)O)n1 [Compound 25] | 14.1 | 0.005 to 0.01 | 1 to 2 | 1 to 2 | – | – | – | – |
| C=CCn1c(=O)c2cnc(Nc3ccc(N4CC5CC(CN(CCF)C5)C4)cc3)nc2n1-c1cccc(C(C)(C)O)n1 [Compound 37] | 21.7 | 0.01 to 0.1 | 0.1 to 1 | 2 to 5 | – | – | – | – |
| C=CCn1c(=O)c2cnc(Nc3ccc(N4CC5CC(C4)N5C)cc3)nc2n1-c1ccc2c(c1)C(C)(O)CO2 (stereo not shown) [Compound 57] | 43.9 | 0.01 to 0.1 | > 10 | > 10 | – | – | – | – |
| C=CCn1c(=O)c2cnc(Nc3ccc(N4CCN(C5CN6CCC5CC6)CC4)cc3)nc2n1-c1cccc(N=S(C)(C)=O)n1 (stereo not shown) [Compound 11] | 110 | 0.005 to 0.01 | 0.1 to 1 | 0.1 to 1 | – | – | – | – |
| C=CCn1c(=O)c2cnc(Nc3ccc(N4CC5CC(CN(C)C5)C4)cc3)nc2n1-c1cccc(C(C)(C)O)n1 [Compound 23] | 38.7 | 0.01 to 0.1 | 2 to 5 | > 10 | – | – | – | – |
| C=CCn1c(=O)c2cnc(Nc3ccc(N4CCC(N5CC6CC5CN6C)CC4)cc3)nc2n1-c1cccc(C(C)(C)O)n1 (stereo not shown) [Compound 18] | > 120 | 0.005 to 0.01 | 0.1 to 1 | 2 to 5 | – | – | – | – |
| C=CCn1c(=O)c2cnc(Nc3ccc(N(C)[C@@H]4CN5CCC4CC5)cc3)nc2n1-c1cccc(C(C)(C)O)n1 [Compound 19] | 48.1 | < 0.005 | > 10 | > 10 | – | – | – | – |
| C=CCn1c(=O)c2cnc(Nc3ccc(N4CCC(N(C)C5CN6CCC5CC6)CC4)cc3)nc2n1-c1cccc(N=S(C)(C)=O)n1 (stereo not shown) [Compound 8] | > 120 | 0.005 to 0.01 | – | 5 to 10 | – | – | – | – |
| C=CCn1c(=O)c2cnc(Nc3ccc(N4CC5CC(C4)N5C(C)C)cc3)nc2n1-c1cccc(C(C)(C)O)n1 [Compound 42] | – | 0.01 to 0.1 | 0.1 to 1 | 0.1 to 1 | 7.99 | 62.2 | 497 | – |
| C=CCn1c(=O)c2cnc(Nc3ccc(C(=O)N(C)C4CN5CCC4CC5)cc3)nc2n1-c1cccc(C(C)(C)O)n1 (stereo not shown) [Compound 62] | 25.1 | 0.005 to 0.01 | 0.1 to 1 | 1 to 2 | – | – | – | – |
| C=CCn1c(=O)c2cnc(Nc3ccc(N4CC5CC(C4)N5CCOC)cc3)nc2n1-c1cccc(C(C)(C)O)n1 [Compound 67] | – | 0.005 to 0.01 | ≤ 0.1 | 0.1 to 1 | – | – | – | – |
| C=CCn1c(=O)c2cnc(Nc3ccc(N(CC)CC(=O)NC)cc3)nc2n1-c1cccc(C(C)(C)O)n1 [Compound 13] | – | 0.005 to 0.01 | 5 to 10 | 5 to 10 | – | – | – | – |
| C=CCn1c(=O)c2cnc(Nc3ccc([C@@H]4C[C@]45C(=O)C4CCN5CC4)cc3)nc2n1-c1cccc(N=S(C)(C)=O)n1 [Compound 47b] | – | 0.01 to 0.1 | 2 to 5 | 2 to 5 | – | – | – | – |
| C=CCn1c(=O)c2cnc(Nc3ccc(N4CC5CC(C4)N5C)cc3)nc2n1-c1ccc2cnn(CC)c2n1 [Compound 61] | > 120 | < 0.005 | – | – | – | – | – | 2 to 5 |
| C=CCn1c(=O)c2cnc(Nc3ccc(N4CC5CCC(C4)N5C)cc3)nc2n1-c1cccc(C(C)(C)O)n1 [Compound 28] | 15 | 0.005 to 0.01 | 0.1 to 1 | 0.1 to 1 | – | – | – | – |
| C=CCn1c(=O)c2cnc(Nc3ccc(N4CC5CC(C4)N5C)cc3)nc2n1-c1ccc2oc(=O)n(CC)c2c1 [Compound 54] | 77 | 0.005 to 0.01 | 2 to 5 | 2 to 5 | – | – | – | – |
| C=CCn1c(=O)c2cnc(Nc3ccc(N4CC5CC(CN(CCOC)C5)C4)cc3)nc2n1-c1cccc(C(C)(C)O)n1 [Compound 34] | – | 0.01 to 0.1 | 2 to 5 | 5 to 10 | – | – | – | – |
| C=CCn1c(=O)c2cnc(Nc3ccc(N4C[C@@H]5C[C@H]4CN5CCF)cc3)nc2n1-c1cccc(C(C)(C)O)n1 [Compound 44] | – | 0.005 to 0.01 | 0.1 to 1 | 0.1 to 1 | – | – | – | – |
| C=CCn1c(=O)c2cnc(Nc3ccc(N4CCN(C)c5ccccc54)cc3)nc2n1-c1cccc(C(C)(C)O)n1 [Compound 50] | – | 0.1 to 1 | > 10 | 5 to 10 | – | – | – | – |
| C=CCN1C2CC1CN(c1ccc(Nc3ncc4c(=O)n(CC=C)n(-c5cccc(C(C)(C)O)n5)c4n3)cc1)C2 [Compound 64] | – | 0.01 to 0.1 | 0.1 to 1 | 0.1 to 1 | – | – | – | – |
